In patent US8053197B2, “Methods for detecting and treating autoimmune disorders” (Oregon Health & Science University, priority 2004, dated 2011):

How the values were obtained:
PBMC = experiment: ELISPOT assay of IL-10 and IFN-γ secreting T cells responding to TCR CDR2 peptides; format: cell-based, human; conditions: for IFN-γ response: recognition by MS patients: induced IFN-γ-secreting T cells in all 5 HC; for frequency of IL-10-secreting T cells / frequency of IFN-γ secreting cells: 5 HC donors, single peptide; for response of MS patients compared with HC: expanded panel, 3 MS patients vs 5 HC
Description: FIGS. 13A-13B PBMC from healthy controls (HC) and MS patients respond differentially to TCR CDR2 peptides. A. Production of IL-10 and IFN-gamma was measured in the PBMC response to TCR BV CDR2 peptides (left) and TCR AV CDR2 peptides (right) representing the entire TCR BV and AV gene repertoire as measured by ELISPOT assay. PBMC responses to ConA were equivalent in HC and MS patients (not shown). B. Summary of cytokine-producing cells in which IL-10 or IFN-gamma production was summed for responses to all BV+AV CDR2 peptides. Total cytokine production represents the summation of IL-10-+IFN-gamma-secreting cells for all peptides. *P<0.05 comparing the frequency in HC vs. MS patients. The HC group consisted of five individuals, three females and two males. The MS patient group consisted of three individuals, two females with relapsing, remitting MS, both symptomatic, and one person with secondary, progressive MS.
To determine antigen-specific T cell frequency by ELISPOT, blood mononuclear cells were separated by Ficoll density gradient centrifugation, resuspended in 2% human AB serum, and aliquotted at 0.5 and 0.25 million cells in triplicate wells of nitrocellulose-coated microliter plates (Becton Dickinson, Franklin Lakes, N.J.) pretreated with anti-IFN-γ (Mabtech, Sweden) or anti-IL-10 (PharMingen, San Diego, Calif.) mAb. Peptides, ConA, and medium were added and the plates incubated at 37C for 24 hours (IFN-γ) or 48 hours (IL-10). Biotin-labeled secondary mAb for each cytokine was added, followed by streptavidin-alkaline phosphatase (Dako Corp., Carpinteria, Calif.) and substrate (BCIP/NBT phosphatase substrate, KPL Laboratories, Gaithersburg, Md.) to develop optimal blue staining. Cytokine spots were quantified using an AID Immunospot Analyzer (AID, Cleveland, Ohio) equipped with a high resolution lens camera and analytical software designed for use with the AID system. Mean spots/well were calculated for each Ag, and net counts established after subtraction of background (no Ag). The frequency of Ag-specific spot-forming cells per million PBMC was determined from the average net response observed at two different cell concentrations. The mean net frequency +SEM was calculated for MS patients and HC, and differences compared by Student's t test for significance (p<0.05).
PBMC were removed from plates by washing with 3× with PBS and 3× with PBS/0.05% Tween, pH 7.6. To each well was added 100 μl of either anti-IFN-γ (1 μg/ml, Mabtech, Sweden) or anti-IL-10 (2 μg/ml, PharMingen, San Diego, Calif.) and incubated for 4 hours at room temperature in the dark. Plates were washed 4× with PBS/Tween, then 100 μl per well of alkaline-phosphatase-conjugated streptavidin (DAKO) (1:1000 of stock) was added and plates were incubated for 45 minutes at room temperature. Plates were washed 4× with PBS/Tween and 6× with PBS, 1 minute each. 100 μl of BCIP/NBT substrate (KPL Laboratories, Gaithersburg, Md.) was added and the color reaction was allowed to develop for 3-7 minutes. Plates were rinsed 3× with distilled water and dried overnight at room temperature.
Plates were scanned with an Immunospot Reader (Cellular Technology Limited, Cleveland, Ohio) with optimized lighting conditions and analyzed according to the predetermined parameters of sensitivity, spot size, and background. The background counts were subtracted, and data was then normalized to cytokine secreting cells per million PBMC plated.
To evaluate native recognition of TCR determinants, the frequency of IL-10 and IFN-γ secreting T cells from the blood of 5 HC (3 females, 2 males, average age 28) was assessed using the ELISPOT assay, to detect responses to a comprehensive panel of 113 unique CDR2 peptides representing nearly all of the AV and BV repertoires (Table 1). Only 3 peptides, AV1 S4A1N1T, BV1551 and BV20S1A1N1, could not be tested due to solubility and toxicity problems. […]

[1] = system: CD4+CD25+ versus CD4+CD25− populations; experiment: Proliferation of CD4+CD25+ versus CD4+CD25− populations stimulated with TCR peptide pool or control antigens; format: cell-based, human; conditions: HC donors with measurable Treg activity
Excerpt: To establish a connection between TCR-reactive T cells and Treg cells, whether TCR reactivity could be found in the CD4+CD25+ Treg cell subpopulation isolated directly from HC was first determined. Thus, CD4+CD25+ versus CD4+CD25− populations were isolated and stimulated with a pool of eight TCR CDR2 peptides that optimally distinguished differences in IL-10 responses between HC and MS patients (designated as Pool #1), or with control antigens, including Copolymer 1, a pool of neuropeptide antigens, and the recall antigen, TT. […] In addition, five treatment-naïve MS patients had no response to Pool #1 peptides in either the CD4+CD25+ or CD4+CD25− fractions and also had no detectable Treg activity. Six MS patients undergoing standard treatment also lacked response to Pool #1 peptides and Treg activity.

ALGQGPQFIFQTYEEEERQRG (TCR CDR2 peptide.) [BV5S2]
frequencies of IL-10-secreting PBMC in MS patients versus HC (PBMC): significantly lower

DLGHGLRLIHYSYGVKDTNKG (TCR CDR2 peptide.) [BV12S2A2T]
IFN-γ response: recognition by MS patients (PBMC): poorly recognized

DLGHGLRLIHYSYGVQDTNKG (TCR CDR2 peptide.) [BV12S2A1T]
IFN-γ response: recognition by MS patients (PBMC): poorly recognized

Glatiramer acetate [Cop-1]
proliferation of CD4+CD25+ compared with CD4+CD25− population [1]: no proliferative response above background

KHGEAPVFLMILLKGGEQKGH (TCR CDR2 peptide.) [AV29S1A2T]
frequency of IL-10-secreting T cells (PBMC): > 1000 cells/million PBMC
response of MS patients compared with HC (PBMC): as well or better than HC

KLEEELKFLVYFQNEELIQKA (TCR CDR2 peptide.) [BV10S1P]
frequency of IFN-γ secreting cells (PBMC): minimal frequencies
frequency of IL-10-secreting T cells (PBMC): > 2000 cells/million PBMC

NQNKEFMLLISFQNEQVLQET (TCR CDR2 peptide.) [BV19S1P]
frequency of IFN-γ secreting cells (PBMC): 900 cells/million PBMC

SSGEMIFLIYQGSYDQQNATE (TCR CDR2 peptide.) [ADV6S1A1N1]
IFN-γ response: recognition by MS patients (PBMC): poorly recognized

TT: the recall antigen, TT
proliferation of CD4+CD25+ compared with CD4+CD25− population [1]: present mainly in the CD4+CD25− fraction

YPNQGLQLLLKYTSAATLVKG (TCR CDR2 peptide.) [AV1S2A1N1T]
response of MS patients compared with HC (PBMC): as well or better than HC
